Several values for one entry are separate records, joined by “and”; a condition that tells them apart may be missing. Equal entries are not always repeated. Entries after “also recorded” stand apart in the source; their conditions may differ. Where two headings read alike, the source gives them in different places.
Tests used:
Assay type in all cases: biochemical
amylin = target: T1, amylin (Homo sapiens, UniProt P10997); assay: Amylin aggregation, qualitative electron microscopy; conditions: amylin 50 μM, 4.1 μM N744, 24 hour period
T1 construct: purchased Bachem
T1 sequence (P10997 34-70 limits assumed): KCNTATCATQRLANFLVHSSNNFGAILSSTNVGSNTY
Procedure: Amylin Aggregation. Aggregation was initiated by diluting the peptide in 10 mM Tris-HCl, pH 7.3 to a final concentration of 50 μM (Goldsbury et al., J. Struct. Biol. 130: 352-362 (2000)) in the presence or absence of 4.1 μM N744. Aliquots were removed after 0, 1, 3, 5, 7, and 24 hours and prepared for EM as described above.
The activity of N744 on another amyloid-forming protein, amylin (Goldsbury et al., J. Struct. Biol. 130: 352-362 (2000)), was also examined.

htau40 filaments = target: T2, htau40 filaments (Homo sapiens, UniProt P10636); assay: Tau disaggregation: preformed htau40 filaments, quantitative electron microscopy
T2 construct: polyhistidine; made in house
T2 sequence (P10636 1-441 isoform P10636-8): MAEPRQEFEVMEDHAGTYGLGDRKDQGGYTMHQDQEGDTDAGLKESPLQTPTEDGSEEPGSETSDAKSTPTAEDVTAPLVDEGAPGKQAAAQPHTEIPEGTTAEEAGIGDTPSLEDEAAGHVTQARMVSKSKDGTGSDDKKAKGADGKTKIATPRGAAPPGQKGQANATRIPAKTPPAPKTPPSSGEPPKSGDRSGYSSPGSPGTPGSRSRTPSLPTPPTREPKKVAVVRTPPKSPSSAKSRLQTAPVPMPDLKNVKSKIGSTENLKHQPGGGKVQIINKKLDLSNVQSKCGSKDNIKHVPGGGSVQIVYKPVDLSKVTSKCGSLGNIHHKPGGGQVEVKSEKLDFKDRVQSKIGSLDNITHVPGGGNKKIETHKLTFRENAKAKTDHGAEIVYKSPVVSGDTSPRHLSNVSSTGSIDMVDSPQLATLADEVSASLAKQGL
Procedure: Tau Disaggregation. Solutions of purified htau40 (4 μM) were polymerized under standard conditions as described above for 3.5 hours, then divided into two separate tubes. One tube received N744 at a final concentration of 4.7 μM, whereas the second tube received DMSO vehicle alone. Aliquots were removed from each sample after 0, 1, 3, 5, 9, 12, and 19 hours incubation and subjected to the electron microscopy assay described below. Control (no N744) reactions were normalized for DMSO vehicle, which was kept below 5.7% (v/v) in all reactions.
(§1) Transmission Electron Microscopy. Aliquots (50 μl) of aggregation and disaggregation reactions were removed, fixed with glutaraldehyde (2%), and adsorbed (1 minute) onto 300 mesh formvar/carbon-coated copper grids (Electron Microscopy Sciences; Ft. Washington, Pa.). The resultant grids were washed with water, stained (1 minute) with 2% uranyl acetate (Electron Microscopy Sciences), washed again with water, blotted dry, and viewed in a Phillips CM 12 microscope operated at 65 kV. Three to five random images from each experimental condition were captured on film at 22,000× magnification, digitized, calibrated, and imported into Optimas 6.5.1 for quantitation of filament length and number as described previously (King et al., J. Neurochem 74: 1749-1757 (2000). An individual filament is defined as any object greater than 50 nm in its long axis. Filaments were counted manually. Filament counts are reported as an average±standard deviation for both total filament length and total filament number. Length distributions were quantified in 25 nm (assembly) or 50 nm (disassembly) wide bins.
N744 Promotes tau Filament Disaggregation. […] To test this hypothesis, htau40 (4 μM) was polymerized with arachidonic acid (75 μM) over a 3.5 hour period after which time equal aliquots were treated with N744 (4.7 μM) or DMSO vehicle alone and filament numbers and lengths were measured over a 19 hour “chase” by electron microscopy. In the absence of N744, total htau40 filament length decreased 23±4% over this time period (FIG. 4). Because sample dilution was only 6% in the experimental paradigm, it appeared that DMSO alone destabilized tau filaments at these concentrations. In contrast, addition of N744 (4.7 μM) led to a more rapid decrease in total filament length so that 87±13% of total filament length was lost over the 19 hour time course. The initial rate of filament loss was well modeled as a first order decay (r^2=0.981; k=0.12±0.01 h^−1) under these conditions (FIG. 4).

htau40 = target: T3, htau40 (Homo sapiens, UniProt P10636); assay: Tau aggregation: arachidonic acid-induced htau40 fibrillization, quantitative transmission electron microscopy; set-up: IC50 for inhibition of tau fibrillization relative to molar concentration of arachidonic acid: unit not given here; conditions: for filament length distribution versus DMSO vehicle control: 3 hours at 37° C.; for IC50: N744 0.12-4.1 μM
T3 construct: polyhistidine; made in house
T3 sequence (P10636 1-441 isoform P10636-8): as above
Procedure: Tau Aggregation. Purified recombinant htau40 was polymerized as described previously (King et al., Biochemistry 38: 14851-14859 (1999); Wilson et al., Am. J. Pathol 150: 2181-2195 (1997); King et al., J. Neurochem 74: 1749-1757 (2000)). Under standard conditions, 4 μM (final concentration) htau40 was incubated with arachidonic acid in Assembly Buffer (10 mM 4-[2-hydroxyethyl]-1-piperazineethanesulfonic acid, 100 mM NaCl, and 5 mM DTT) at either room temperature or at 37° C. Fibrillization was induced by the addition of arachidonic acid (75-100 μM) and continued for 3 to 6 hours until analyzed by electron microscopy as described below. When present, N744 final concentration varied between 0.12 and 4.1 μM in aggregation assays. (N744 final concentration of up to 4.7 μM was used in disaggregation assays (see below)). Control reactions were normalized for DMSO vehicle, which was limited to no more than 5% (v/v) in all reactions.
as §1

Aβ1-40 = target: T4, Aβ1-40 (Homo sapiens, UniProt P05067); assay: Aβ1-40 aggregation, turbidity at 400 nm; conditions: Aβ1-40 20 μM, 4.1 μM N744, 5 hours
T4 construct: Human Aβ1-40 (Bachem; Philadelphia, Pa.); purchased Bachem
T4 sequence (P05067 672-711 limits assumed): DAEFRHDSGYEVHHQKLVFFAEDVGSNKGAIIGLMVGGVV
Procedure: Aβ1-40 Aggregation. Aggregation was initiated by diluting the Aβ stock solution to 20 μM final concentration in aggregation buffer (150 mM NaCl, 10 mM 2-[N-morpholino]ethanesulfonic acid, pH 6.2; final volume 300 μl). Turbidity resulting from Aβ aggregation in the presence (4.1 μM final concentration) and absence of […] was monitored as a function of time in a Beckman DU640B spectrophotometer at 400 nm versus a DMSO vehicle blank (Snyder et al., Biophys 67: 1216-1228 (1994); Evans et al., Proc. Natl. Acad. Sci U.S.A. 92: 763-767 (1995)). Cuvettes were vortexed before each reading. […] Selectivity of tau Fibrillization Antagonism. […] To determine whether amyloid binding was accompanied by fibrillization inhibitory activity, the ability of […] to inhibit Aβ1-40 assembly was examined. In the absence of ligand, Aβ1-40 (20 μM) polymerized spontaneously after a lag of about 80 minutes.

[1] = htau40 4 μM, arachidonic acid 75 μM, 3.5 hours at 37° C.

- net first order rate of filament loss, corrected for dilution and DMSO vehicle (htau40 filaments; 4.7 μM N744, htau40 4 μM): 0.10 ± 0.02 h⁻¹
- initial first order rate of decrease of total filament length (htau40 filaments; 4.7 μM N744 added to filaments from htau40 4 μM, 19 hour chase): 0.12 ± 0.01 h⁻¹
- total filament length as % of vehicle only control (htau40 filaments; after 19 hours incubation with 4.7 μM N744): 13±2%
- total filament length lost (htau40 filaments; over 19 hour time course, 4.7 μM N744): 87±13%
- IC50 for inhibition of tau fibrillization relative to molar concentration of arachidonic acid (htau40): < 0.01
- tau fibrillization (total number or total length of filaments) (htau40; 4.1 μM N744, about 1:1 with htau40 4 μM, arachidonic acid 75 μM): greatly inhibited
- filament length distribution versus DMSO vehicle control (htau40; N744 ≧1.2 μM, htau40 4 μM): significant shortening
- Hill slope, total filament length (htau40; [1]): 1.84±0.14
- Hill slope, total filament number (htau40; [1]): 1.61±0.10
- IC50 (htau40; htau40 4 μM, arachidonic acid 75 μM, 3.5 hours at 37° C., read-out: IC50, inhibition of total filament length): 294 nM and < 300 nM and ~300 nM
- IC50 (htau40; htau40 4 μM, arachidonic acid 75 μM, 3.5 hours at 37° C., read-out: IC50, inhibition of total filament number): 272 ± 17 nM
- filament length distribution versus DMSO vehicle control (htau40; low N744 concentrations (≦410 nM), htau40 4 μM): did not differ significantly
Compound: CCC(/C=C1\Sc2ccc(OC)cc2N1CCO)=C\c1sc2ccc(OC)cc2[n+]1CCO [N744, 3-(2-hydroxyethyl)-2-[2-[[3-(2-hydroxyethyl)-5-methoxy-2-benzothiazolylidene]methyl]-1-butenyl]-5-methoxybenzothiazolium]
- effect on amylin fibrillization (amylin): did not interfere; also recorded: did not modulate
- filament number per length bin relative to DMSO only control (htau40 filaments; 19 hours, 4.7 μM N744, 50 nm bins): significantly fewer filaments in every bin
- effect on Aβ1-40 fibrillization (Aβ1-40): did not appreciably modulate the extent or half-life; also recorded: little effect
